Columns and labels:
HPK1 [1] = biological target: T1, HPK1 (Homo sapiens, UniProt Q92918); test: Western blot analysis of endogenous HPK1 level in Jurkat T cells; format: cell-based; conditions: for reducing HPK1 protein levels: characterization of exemplary degraders (FIGS. 1-14)
T1 construct: endogenous in cells; host or cells: Jurkat T cells

Jurkat T cells = test: IL-2 production by Jurkat cells on CD3XCD28 stimulation (IL-2 ELISA); format: cell-based, human; conditions: wider ranges of compound concentrations
Method: (§1) EXAMPLE 348. Several compounds according to the present invention employing the indolin-2-one HPK1 binding base, (which henceforth shall be referred to as the HC58 series, the HC65 series and the HC75 series) were assessed on their abilities to degrade HPK1 and produce an elevated IL-2 response profile upon stimulation by anti-CD3- and anti-CD28-mAb-mediated (CD3XCD28) stimulation (FIGS. 1-4). The elevated IL-2 response profile induced by TCR engagement after exposure to HC58 series of HPK1 degraders is shown in FIG. 1. […] A select sub-set of the lead HPK1 degraders from the HC58 series were further characterized to determine whether they could degrade primary mouse T cells.
EXAMPLE 351. […] Furthermore, compound HC58-78 and HC90-50 were also assessed for their abilities to enhance the CD3XCD28-induced IL-2 response by primary human PBMC (FIG. 10).
For the synthesis of intermediates and examples (1-89) below, HPLC spectra for all compounds were acquired using an Agilent 1200 Series system with DAD detector. […] Clone E6-1 cells is a preferred cellular platform for studying T cell activation in response to T cell receptor engagement because it produces the cytokine IL-2, which could be used as proxy readout for the level of T cell activation. […]

human PBMCs = test: Intracellular IFNγ and TNFα staining of human PBMC (FACS); format: cell-based; conditions: in combination with blinatumomab
Source text: EXAMPLE 355. One of the mechanisms employed by PBMC to kill their target cells is by releasing IFNγ and TNFα production. These inflammatory cytokines are known have potent cytolytic effects on cancer cells. […] Mediated PBMC killing of the Raji cells is most evident at PBMC:Raji ratio of 5:1 (FIG. 13).
To determine the number of CD19^+ Raji cells killed by human PBMC that were activated by the Blinatumomab-mediated activation, we used CountBright cell counting beads to estimate the number of cells remained after 72 hours of co-culturing of PBMC and Raji. As for the intracellular staining of the TNFα and the IFNγ, the standard para-formaldehyde-based “fix and perm” procedure was used in order to quantitate the amount of intracellular cytokine trapped inside the cells by brefeldin A. FACS analysis of stained cells is performed by BD's LSR II FACS.

HPK1 [2] = biological target: T2, HPK1 (Mus musculus, UniProt P70218); test: HPK1 degradation in primary mouse T cells; format: cell-based; conditions: 300 nM
T2 construct: HPK1 degraders could effectively degrade endogenous HPK1 in murine T cells; endogenous in cells; host or cells: primary mouse T cells
T2 sequence (P70218 1-827): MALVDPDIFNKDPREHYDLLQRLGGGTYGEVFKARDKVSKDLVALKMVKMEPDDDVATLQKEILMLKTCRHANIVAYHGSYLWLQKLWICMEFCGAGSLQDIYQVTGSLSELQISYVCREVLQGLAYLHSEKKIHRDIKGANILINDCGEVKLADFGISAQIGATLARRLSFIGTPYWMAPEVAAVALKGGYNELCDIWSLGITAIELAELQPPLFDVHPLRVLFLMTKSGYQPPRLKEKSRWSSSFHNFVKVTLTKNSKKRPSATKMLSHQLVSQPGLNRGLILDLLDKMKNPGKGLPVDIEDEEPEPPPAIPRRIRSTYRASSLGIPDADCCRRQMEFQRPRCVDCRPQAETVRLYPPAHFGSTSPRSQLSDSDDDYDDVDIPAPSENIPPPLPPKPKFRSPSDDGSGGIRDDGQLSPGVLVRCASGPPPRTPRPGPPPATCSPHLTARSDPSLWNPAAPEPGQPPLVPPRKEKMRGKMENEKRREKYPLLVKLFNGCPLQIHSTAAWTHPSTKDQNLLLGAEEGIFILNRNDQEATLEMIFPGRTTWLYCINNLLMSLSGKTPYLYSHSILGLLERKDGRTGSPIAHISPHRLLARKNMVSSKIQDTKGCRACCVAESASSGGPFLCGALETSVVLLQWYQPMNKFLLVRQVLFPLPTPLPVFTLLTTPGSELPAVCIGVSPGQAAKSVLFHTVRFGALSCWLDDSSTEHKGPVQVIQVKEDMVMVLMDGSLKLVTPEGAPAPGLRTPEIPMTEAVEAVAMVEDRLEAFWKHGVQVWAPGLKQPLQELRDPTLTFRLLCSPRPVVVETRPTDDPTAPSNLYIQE
Method: as §1
EXAMPLE 353. HPK1 is expressed in all hematopoietic cells examined to date, including T cells, B cells, dendritic cells and neutrophils. Because the breath of therapeutic approaches might involve the use of Chimeric Antigen Receptor (CAR) T cells, dendritic cells, TCR transgenic T cells and Tumor Infiltrating Lymphocytes (TILs), selected HPK1 degraders were evaluated to determine whether they could degrade HPK1 effectively in some of these cell types. […] Potent degradation of HPK1 by HPK1 degraders was also observed in the human DC1 dendritic cells.

CD4+ T cells = test: CD28-independent IL-2 production by CD4+ T cells; format: cell-based; conditions: fixed concentration of plate-bound antibody, varying concentrations of soluble anti-CD28 mAb (FIG. 6)
primary murine T cells = test: IL-2 production by primary murine T cells; format: cell-based, mouse
Method: as §1

[3] = tested on: CD4+ primary murine T cells; test: CD28-independent IL-2 production by CD4+ primary murine T cells (IL-2 ELISA); format: cell-based, mouse; conditions: 500 nM, plate-bound anti-CD3 mAb 5 μg/mL, varying soluble anti-CD28 mAb
Method: EXAMPLE 34. I was observed that HPK1^−/− T cells, unlike their wild type counterparts, could readily produce IL-2 in response to CD3 □ crosslinking alone (data not shown). To assess whether HPK1 degraders could confer the same ability to produce IL-2 in a CD28-independent manner, CD4^+ primary murine T cells prepared as described in FIG. 5 were treated with 500 nM of HC58-75 HPK1 degrader or DMSO or Pomalidomide as controls. Their abilities to produce IL-2 in response a fixed concentration of plate-bound anti-CD3[…] mAb (5 μg/mL) in conjunction with varying soluble concentration of anti-CD28 mAb was then assessed.

T1 sequence (Q92918 whole entry): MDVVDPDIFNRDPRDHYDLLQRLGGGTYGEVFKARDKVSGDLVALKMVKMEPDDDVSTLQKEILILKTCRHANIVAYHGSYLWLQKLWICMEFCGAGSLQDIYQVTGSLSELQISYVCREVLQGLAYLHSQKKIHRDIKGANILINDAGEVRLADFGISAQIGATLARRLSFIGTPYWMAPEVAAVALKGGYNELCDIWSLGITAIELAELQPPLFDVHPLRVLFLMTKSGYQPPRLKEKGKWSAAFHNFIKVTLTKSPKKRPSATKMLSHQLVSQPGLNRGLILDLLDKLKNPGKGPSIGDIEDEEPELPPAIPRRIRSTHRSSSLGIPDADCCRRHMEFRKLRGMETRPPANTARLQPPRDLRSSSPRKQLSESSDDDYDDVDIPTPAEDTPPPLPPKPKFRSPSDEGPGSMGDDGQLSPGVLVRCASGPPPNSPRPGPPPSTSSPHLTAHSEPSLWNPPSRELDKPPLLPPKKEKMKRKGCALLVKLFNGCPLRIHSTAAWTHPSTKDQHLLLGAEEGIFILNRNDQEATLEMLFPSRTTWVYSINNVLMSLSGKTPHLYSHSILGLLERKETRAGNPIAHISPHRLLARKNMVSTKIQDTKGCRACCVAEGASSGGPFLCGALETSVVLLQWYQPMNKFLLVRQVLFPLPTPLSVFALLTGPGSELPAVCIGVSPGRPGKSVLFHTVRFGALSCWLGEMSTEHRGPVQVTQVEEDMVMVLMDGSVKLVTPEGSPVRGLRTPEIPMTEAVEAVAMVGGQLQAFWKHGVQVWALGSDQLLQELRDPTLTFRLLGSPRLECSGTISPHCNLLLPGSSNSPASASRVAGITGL

Row | Structure (SMILES) | reducing HPK1 protein levels (HPK1 [1]) | IL-2 response profile, rank within the HC90 series (Jurkat T cells) | also measured
1 | Cc1[nH]c(/C=C2\C(=O)Nc3ccc(F)cc32)c(C)c1C(=O)NCCCN1CCN(C(=O)CCCCNc2cccc3c2C(=O)N(C2CCC(=O)NC2=O)C3=O)CC1 (stereo not shown) [HC58-38, (Z)—N-(3-(4-(5-((2-(2,6-dioxopiperidin-3-yl)-1,3-dioxoisoindolin-4-yl)amino)pentanoyl)piperazin-1-yl)propyl)-5-((5-fluoro-2-oxoindolin-3-ylidene)methyl)-2,4-dimethyl-1H-pyrrole-3-carboxamide] | especially effective in reducing HPK1 protein levels | – | –
2 | COc1cccc(F)c1-c1ncc2[nH]nc(-c3ccc(N4CCN(C(=O)CCNc5cccc6c5C(=O)N(C5CCC(=O)NC5=O)C6=O)CC4)cc3)c2n1 (stereo not shown) [HC90-50, 2-(2,6-dioxopiperidin-3-yl)-4-((3-(4-(4-(5-(2-fluoro-6-methoxyphenyl)-1H-pyrazolo[4,3-d]pyrimidin-3-yl)phenyl)piperazin-1-yl)-3-oxopropyl)amino)isoindoline-1,3-dione] | especially effective in reducing HPK1 protein levels | top two compounds from the HC90 series | percentage of human PBMCs that express high level of IFNγ and TNFα (human PBMCs): significantly increased
3 | COc1cccc(F)c1-c1ncc2[nH]nc(-c3ccc(N4CCN(C(=O)CCCNc5cccc6c5C(=O)N(C5CCC(=O)NC5=O)C6=O)CC4)cc3)c2n1 (stereo not shown) [HC90-51, 2-(2,6-dioxopiperidin-3-yl)-4-((4-(4-(4-(5-(2-fluoro-6-methoxyphenyl)-1H-pyrazolo[4,3-d]pyrimidin-3-yl)phenyl)piperazin-1-yl)-4-oxobutyl)amino)isoindoline-1,3-dione] | especially effective in reducing HPK1 protein levels | top two compounds from the HC90 series | –
4 | Cc1[nH]c(/C=C2\C(=O)Nc3ccc(F)cc32)c(C)c1C(=O)NCCCN1CCN(CC(=O)NCCCCCCNc2cccc3c2C(=O)N(C2CCC(=O)NC2=O)C3=O)CC1 (stereo not shown) [HC58-76, (Z)—N-(3-(4-(2-((6-((2-(2,6-dioxopiperidin-3-yl)-1,3-dioxoisoindolin-4-yl)amino)hexyl)amino)-2-oxoethyl)piperazin-1-yl)propyl)-5-((5-fluoro-2-oxoindolin-3-ylidene)methyl)-2,4-dimethyl-1H-pyrrole-3-carboxamide] | especially effective in reducing HPK1 protein levels | – | degradation of HPK1 protein in primary T cells compared with Jurkat T cells (HPK1 [2]): could degrade more HPK1 protein in primary T cells than in Jurkat T cells
5 | Cc1[nH]c(/C=C2\C(=O)Nc3ccc(F)cc32)c(C)c1C(=O)NCCCN1CCN(CC(=O)NCCCCCNc2cccc3c2C(=O)N(C2CCC(=O)NC2=O)C3=O)CC1 (stereo not shown) [HC58-75, (Z)—N-(3-(4-(2-((5-((2-(2,6-dioxopiperidin-3-yl)-1,3-dioxoisoindolin-4-yl)amino)pentyl)amino)-2-oxoethyl)piperazin-1-yl)propyl)-5-((5-fluoro-2-oxoindolin-3-ylidene)methyl)-2,4-dimethyl-1H-pyrrole-3-carboxamide] | especially effective in reducing HPK1 protein levels | – | endogenous level of HPK1 (HPK1 [1]; Jurkat T cells, multiple day post exposure (FIG. 3)): could reduce the endogenous level of HPK1; CD28-independent IL-2 production (CD4+ T cells): CD28-independent IL-2 production; IL-2 production compared with the DMSO-treated counterpart (primary murine T cells): produced more IL-2 than the DMSO-treated counterpart; IL-2 production without CD28 co-receptor engagement [3]: could produce IL-2 without the help of CD28 co-receptor engagement

From patent US12465648B2, “Heterobifunctional compounds as degraders of HPK1” (ICAHN SCHOOL OF MEDICINE AT MOUNT SINAI, priority 2019, dated 2025)
